Experimental data from ChEMBL document CHEMBL5532639, “Heterocyclic pyrimidine derivatives as promising antibacterial agents” (Eur J Med Chem, 2023).
Converted amounts (≈) assume the structure as drawn.

Columns and labels:
[1] = tested on: Salmonella typhimurium; assay: Antibacterial activity against Salmonella typhimurium DT104 assessed as reduction in bacterial growth inhibition measured after 24 hrs by Mueller Hinton Agar dilution method; format: functional, Salmonella enterica subsp. enterica serovar Typhimurium; details: Salmonella enterica
[2] = tested on: Vibrio parahaemolyticus; assay: Antibacterial activity against Vibrio parahaemolyticus assessed as reduction in bacterial growth inhibition measured after 24 hrs by Mueller Hinton Agar dilution method; format: functional
[3] = tested on: Salmonella enterica subsp. enterica serovar Paratyphi B; assay: Antibacterial activity against Salmonella paratyphi B CICC 21495 assessed as reduction in […]; format: functional; details: time lower 48 hrs
[4] = tested on: Edwardsiella tarda; assay: Antimicrobial activity against Edwardsiella tarda assessed as inhibition of microbial growth incubated for 18 hrs by CLSI protocol based Mueller-Hinton broth assay; format: functional
[5] = tested on: Vibrio cholerae; assay: Antibacterial activity against Vibrio cholerae assessed as inhibition of bacterial growth incubated for 24 hrs by broth microdilution method; format: functional
[6] = tested on: Staphylococcus aureus; assay: Antimicrobial activity against Staphylococcus aureus assessed as inhibition of microbial growth incubated for 18 hrs by CLSI protocol based Mueller-Hinton broth assay; format: functional
[7] = tested on: Escherichia coli; assay: Antimicrobial activity against Escherichia coli assessed as inhibition of microbial growth incubated for 18 hrs by CLSI protocol based Mueller-Hinton broth assay; format: functional
[8] = tested on: Vibrio cholerae; assay: Antibacterial activity against Vibrio cholerae measured after 18 to 20 hrs by broth microdilution method; format: functional; details: time 18-20 hrs
[9] = tested on: Enterococcus faecalis; assay: Antimicrobial activity against Enterococcus faecalis assessed as inhibition of microbial growth incubated for 18 hrs by CLSI protocol based Mueller-Hinton broth assay; format: functional
[10] = tested on: Salmonella typhimurium; assay: Antimicrobial activity against Salmonella typhimurium DT104 assessed as inhibition of microbial growth incubated for 18 hrs by CLSI protocol based Mueller-Hinton broth assay; format: functional, Salmonella enterica subsp. enterica serovar Typhimurium; details: Salmonella enterica
[11] = tested on: Pseudomonas aeruginosa; assay: Antimicrobial activity against Pseudomonas aeruginosa assessed as inhibition of microbial growth incubated for 18 hrs by CLSI protocol based Mueller-Hinton broth assay; format: functional
[12] = tested on: Klebsiella pneumoniae; assay: Antimicrobial activity against Klebsiella pneumoniae assessed as inhibition of microbial growth incubated for 18 hrs by CLSI protocol based Mueller-Hinton broth assay; format: functional
[13] = tested on: Staphylococcus epidermidis; assay: Antimicrobial activity against Staphylococcus epidermidis assessed as inhibition of microbial growth incubated for 18 hrs by CLSI protocol based Mueller-Hinton broth assay; format: functional
[14] = tested on: Salmonella enterica; assay: Antimicrobial activity against Salmonella enterica assessed as inhibition of microbial growth incubated for 18 hrs by CLSI protocol based Mueller-Hinton broth assay; format: functional
[15] = tested on: Aeromonas hydrophila; assay: Antibacterial activity against Aeromonas hydrophila assessed as inhibition of microbial growth incubated for 24 hrs by CLSI protocol based Mueller-Hinton broth assay; format: functional
[16] = tested on: Vibrio cholerae; assay: Antibacterial activity against Vibrio cholerae assessed as reduction in bacterial growth measured after 18 to 20 hrs by broth microdilution method; format: functional; details: time 18-20 hrs
[17] = tested on: Bacillus subtilis; assay: Antibacterial activity against Bacillus subtilis assessed as reduction in bacterial growth incubated for 24 hrs by CLSI protocol based Mueller-Hinton broth assay; format: functional
[18] = tested on: Shigella sonnei; assay: Antibacterial activity against Shigella sonnei assessed as inhibition of bacterial growth measured after 18 to 20 hrs by broth microdilution method; format: functional; details: time 18-20 hrs
[19] = tested on: Shigella boydii; assay: Antibacterial activity against Shigella boydii assessed as inhibition of bacterial growth measured after 18 to 20 hrs by broth microdilution method; format: functional; details: time 18-20 hrs
[20] = tested on: Plesiomonas shigelloides; assay: Antibacterial activity against Plesiomonas shigelloides assessed as inhibition of bacterial growth measured after 18 to 20 hrs by broth microdilution method; format: functional; details: time 18-20 hrs
[21] = tested on: Providencia rettgeri; assay: Antibacterial activity against Providencia rettgeri assessed as bacterial growth inhibition incubated for 18 hrs by CLSI protocol based Mueller-Hinton broth assay; format: functional
[22] = tested on: Shigella flexneri; assay: Antibacterial activity against Shigella flexneri assessed as inhibition of bacterial growth incubated for 24 hrs by broth microdilution method; format: functional
[23] = tested on: Proteus vulgaris; assay: Antimicrobial activity against Proteus vulgaris assessed as microbial growth inhibition incubated for 24 hrs by broth microdilution method; format: functional
[24] = tested on: Enterobacter sp.; assay: Antibacterial activity against Enterobacter sp. assessed as inhibition of bacterial growth; format: functional
[25] = tested on: Morganella morganii; assay: Antibacterial activity against Morganella morganii UM869 incubated for 16 to 18 hrs by broth microdilution method; format: functional; details: time 16-18 hrs
[26] = tested on: Citrobacter freundii; assay: Antibacterial activity against multidrug-resistant Citrobacter freundii assessed as bacterial growth inhibition incubated for 20 to 22 hrs by CLSI based analysis; format: functional; details: time 20-22 hrs
[27] = tested on: Morganella morganii; assay: Antibacterial activity against Morganella morganii UM573 assessed as bacterial growth inhibition incubated for 20 to 22 hrs by CLSI based analysis; format: functional; details: time 20-22 hrs
[28] = tested on: Salmonella paratyphi; assay: Antibacterial activity against Salmonella paratyphi A CICC 21501 incubated overnight by standard microtiter dilution method; format: functional, Salmonella enterica subsp. enterica serovar Paratyphi A; details: Salmonella enterica
[29] = tested on: Staphylococcus aureus; assay: Antibacterial activity against Staphylococcus aureus assessed as bacterial growth inhibition; format: functional
[30] = tested on: Escherichia coli; assay: Antibacterial activity against Escherichia coli assessed as reduction in bacterial growth by broth microdilution method; format: functional
[31] = tested on: Pseudomonas aeruginosa; assay: Antibacterial activity against Pseudomonas aeruginosa assessed as reduction in microbial growth by broth microdilution method; format: functional
[32] = tested on: Escherichia coli; assay: Antibacterial activity Escherichia coli assessed as reduction in bacterial growth; format: functional
[33] = tested on: Pseudomonas aeruginosa; assay: Antibacterial activity against Pseudomonas aeruginosa assessed as reduction in microbial growth after 18 hrs by MTT based broth dilution method; format: functional
[34] = tested on: Klebsiella pneumoniae; assay: Antibacterial activity against Klebsiella pneumoniae assessed as reduction in bacterial growth by broth microdilution method; format: functional
[35] = tested on: Bacillus subtilis; assay: Antibacterial activity against Bacillus subtilis assessed as reduction in bacterial cell viability by well plate method; format: functional
[36] = tested on: Staphylococcus epidermidis; assay: Antibacterial activity against Staphylococcus epidermidis assessed as reduction in microbial growth; format: functional
[37] = tested on: Staphylococcus aureus; assay: Antibacterial activity against Staphylococcus aureus assessed as bacterial growth inhibition by measuring zone of inhibition at 50 ug/ml by agar cup diffusion assay; format: functional; details: read-out: IZ
[38] = tested on: Escherichia coli; assay: Antibacterial activity against Escherichia coli assessed as bacterial growth inhibition by measuring zone of inhibition at 50 ug/ml by agar cup diffusion assay; format: functional; details: read-out: IZ
[39] = tested on: Salmonella typhimurium; assay: Antibacterial activity against Salmonella typhimurium DT104 assessed as bacterial growth inhibition by measuring zone of inhibition at 50 ug/ml by agar cup diffusion assay; format: functional, Salmonella enterica subsp. enterica serovar Typhimurium; details: Salmonella enterica, read-out: IZ
[40] = tested on: Bacillus subtilis; assay: Antibacterial activity against Bacillus subtilis assessed as bacterial growth inhibition by measuring zone of inhibition at 50 ug/ml by agar cup diffusion assay; format: functional; details: read-out: IZ
[41] = tested on: Salmonella typhimurium; assay: Antimicrobial activity against Salmonella typhimurium DT104 assessed as diameter of inhibition zone incubated for 24 hrs by well diffusion assay; format: functional, Salmonella enterica subsp. enterica serovar Typhimurium
[42] = tested on: Micrococcus luteus; assay: Antimicrobial activity against Micrococcus luteus assessed as diameter of inhibition zone incubated for 24 hrs by well diffusion assay; format: functional
[43] = tested on: Pseudomonas aeruginosa; assay: Antimicrobial activity against Pseudomonas aeruginosa assessed as diameter of inhibition zone incubated for 24 hrs by well diffusion assay; format: functional
[44] = tested on: Bacillus subtilis; assay: Antimicrobial activity against Bacillus subtilis assessed as diameter of inhibition zone incubated for 24 hrs by well diffusion assay; format: functional

Cc1ccc(-c2cc(-c3ccc(Cl)cc3)nc(/N=C3/C(=O)N(CNCN4CCOCC4)c4ccc(Br)cc43)n2)cc1
MIC [1]: 156 µg/mL (≈ 247 µM)
MIC [2]: 78.1 µg/mL (≈ 124 µM)
MIC [3]: 39.1 µg/mL (≈ 61.8 µM)
MIC [4]: 39.1 µg/mL
MIC [5]: 39.1 µg/mL (≈ 61.8 µM)
MIC [6]: 78.1 µg/mL
MIC [7]: 2.44 µg/mL
MIC [8]: 0.3 µg/mL (≈ 0.475 µM)
MIC [9]: 1.22 µg/mL
MIC [10]: 19.5 µg/mL
MIC [11]: 312 µg/mL
MIC [12]: 312 µg/mL
MIC [13]: 625 µg/mL
MIC [14]: 9.76 µg/mL
MIC [15]: 312 µg/mL
MIC [16]: 9.76 µg/mL (≈ 15.4 µM)
MIC [17]: 9.76 µg/mL (≈ 15.4 µM)
MIC [18]: 312 µg/mL (≈ 494 µM)
MIC [19]: 9.76 µg/mL (≈ 15.4 µM)
MIC [20]: 4.88 µg/mL (≈ 7.72 µM)
MIC [21]: 39.1 µg/mL (≈ 61.8 µM)
MIC [22]: 312 µg/mL (≈ 494 µM)
MIC [23]: 312 µg/mL (≈ 494 µM)
MIC [24]: 156 µg/mL (≈ 247 µM)
MIC [25]: 156 µg/mL (≈ 247 µM)
MIC [26]: 39.1 µg/mL (≈ 61.8 µM)
MIC [27]: 156 µg/mL (≈ 247 µM)
MIC [28]: 39.1 µg/mL (≈ 61.8 µM)

COc1ccc(C2C3=C(CCCC3=O)Oc3nc(-c4cc5ccccc5oc4=O)[nH]c(=O)c32)cc1OC (centres undefined)
MIC [29]: 50 µg/mL (≈ 100 µM)
MIC [30]: 12.5 µg/mL (≈ 25.1 µM)
MIC [31]: 50 µg/mL
MIC [32]: 50 µg/mL (≈ 100 µM)
MIC [33]: 50 µg/mL
MIC [34]: 50 µg/mL (≈ 100 µM)
MIC [35]: 50 µg/mL (≈ 100 µM)
MIC [36]: 100 µg/mL

CN(C)[C@@H]1C(O)=C(C(N)=O)C(=O)[C@@]2(O)C(O)=C3C(=O)c4c(O)cccc4[C@@](C)(O)[C@H]3C[C@@H]12 [TETRACYCLINE]
zone of inhibition at 50 µg/mL [37]: 19 mm
zone of inhibition at 50 µg/mL [38]: 15 mm
zone of inhibition at 50 µg/mL [39]: 24 mm
zone of inhibition at 50 µg/mL [40]: 21 mm
inhibition zone (IZ) [41]: 8 mm
inhibition zone (IZ) [42]: 16 mm
inhibition zone (IZ) [43]: 18 mm
inhibition zone (IZ) [44]: 14 mm
